For 15 compounds, Activity and inhibition of growth results are on record in ChEMBL document CHEMBL1811878, “Heteroatom-substituted analogues of orphan nuclear receptor small heterodimer partner ligand and apoptosis inducer (E)-4-[3-(1-Adamantyl)-4-hydroxyphenyl]-3-chlorocinnamic acid” (J Med Chem, 2011).

For test [1], the system named is A549. The test can be described thus: Induction of apoptosis in human A549 cells assessed as decrease in ATP level after 72 hrs by luminescence assay. The format is functional, cell-based.
Test [2] deals with PC-3. The test can be described thus: Induction of apoptosis in human PC3 cells assessed as decrease in ATP level after 72 hrs by luminescence assay. The format is functional, cell-based.
Test [3] deals with HT-29. The test can be described thus: Induction of apoptosis in human HT-29 cells assessed as decrease in ATP level after 72 hrs by luminescence assay. The format is functional, cell-based.
Test [4] deals with KG-1. The test can be described thus: Growth inhibition in human KG1 cells expressing p53 gene at 1 uM after 48 hrs by MTT assay. The format is functional. The settings on record: KG-1, 48 h, read-out: GI.
The test system of test [5] is KG-1. The test can be described thus: Growth inhibition in human KG1 cells expressing p53 gene at 5 uM after 48 hrs by MTT assay. The format is functional. The settings on record: KG-1, 48 h, read-out: GI.
The test system of test [6] is KG-1. The test can be described thus: Induction of apoptosis in human KG1 cells expressing p53 gene assessed as DNA fragmentation at 1 uM after 48 hrs by acridine orange staining method. The format is functional.
In test [7] the test system is KG-1. The test can be described thus: Induction of apoptosis in human KG1 cells assessed as DNA fragmentation at 5 uM after 48 hrs by acridine orange staining method. It is filed as functional.
Test [8] deals with A549. The test can be described thus: Induction of apoptosis in human A549 cells assessed as decrease in ATP level at 10 uM after 72 hrs by luminescence assay. The format is functional, cell-based.
Test [9] deals with PC-3. The test can be described thus: Induction of apoptosis in human PC3 cells assessed as decrease in ATP level at 10 uM after 72 hrs by luminescence assay. It is filed as functional, cell-based.
The subject of test [10] is HT-29. The test can be described thus: Induction of apoptosis in human HT-29 cells assessed as decrease in ATP level at 10 uM after 72 hrs by luminescence assay. It is filed as functional.
For test [11], the system named is A549. The test can be described thus: Induction of apoptosis in human A549 cells assessed as decrease in ATP level at 5 uM after 72 hrs by luminescence assay. The format is functional. Also on record: scale not given: the % may be the effect or the level left.
The subject of test [12] is PC-3. The test can be described thus: Induction of apoptosis in human PC3 cells assessed as decrease in ATP level at 5 uM after 72 hrs by luminescence assay. The format is functional. Also on record: scale not given: the % may be the effect or the level left.
Test [13] has as its system HT-29. The test can be described thus: Induction of apoptosis in human HT-29 cells assessed as decrease in ATP level at 5 uM after 72 hrs by luminescence assay. Also on record: scale not given: the % may be the effect or the level left. It is filed as functional.

The source made the active and inactive calls. The rule behind the calls is not given here.

Take `O=C(O)CSc1ccc(-c2ccc(O)c(C34CC5CC(CC(C5)C3)C4)c2)c(Cl)c1`: the Activity result in the test on A549 [1] was “Dose-dependent effect”; with PC-3 [2], “Dose-dependent effect”; in the test on HT-29 [3], “Dose-dependent effect”; in the test on KG-1 [6], 2%; in the test with KG-1 [7] it was 5%. The inhibition of growth at 1 µM in the test on KG-1 [4] worked out at 7%. Moreover, in the test on KG-1 [5], the inhibition of growth at 5 µM was 11%.
Consider `O=C(O)CNc1cnc(-c2ccc(O)c(C34CC5CC(CC(C5)C3)C4)c2)nc1`, for which the Activity result in the test on A549 [1] was “Dose-dependent effect”; in the test on PC-3 [2] it was “Dose-dependent effect”; in the test on HT-29 [3] it was “Dose-dependent effect”; with KG-1 [6] it was 0%; in the test on KG-1 [7], 0%. In the test with KG-1 [4], the inhibition of growth at 1 µM is 0%. For the same compound, the inhibition of growth at 5 µM in the test with KG-1 [5] was 0%.
`O=C(O)CCN1CCN(c2ccc(O)c(C34CC5CC(CC(C5)C3)C4)c2)CC1`: in the test with A549 [8], the result was inactive. Besides, the result with PC-3 [9] was Active. Further, the Activity result was “Dose-dependent effect” in the test with A549 [1]; “Dose-dependent effect” in the test on PC-3 [2]; “Dose-dependent effect” in the test with HT-29 [3]; 1% with KG-1 [6]; 1% with KG-1 [7]. Further, the inhibition of growth at 1 µM with KG-1 [4] is -3%. In addition, in the test with KG-1 [5], the inhibition of growth at 5 µM came out at 5%.
As for `O=C(O)/C=C/C1CCN(c2ccc(O)c(C34CC5CC(CC(C5)C3)C4)c2)CC1`, the Activity entry with A549 [1] is “Dose-dependent effect”; in the test with PC-3 [2], “Dose-dependent effect”; with HT-29 [3], “Dose-dependent effect”; in the test on KG-1 [6], 1%; with KG-1 [7] it was 1%. For the same compound, in the test with KG-1 [4], the inhibition of growth at 1 µM was determined as 1%. In the test with KG-1 [5], the inhibition of growth at 5 µM amounted to 2%.
Regarding `O=C(O)c1cc2ccc(-c3ccc(O)c(C45CC6CC(CC(C6)C4)C5)c3)cc2[nH]1`, the Activity result with A549 [1] was “Dose-dependent effect”; with PC-3 [2] it was “Dose-dependent effect”; in the test on HT-29 [3], “Dose-dependent effect”; in the test on KG-1 [6], 1%; with KG-1 [7] it was 3%. The inhibition of growth at 1 µM in the test on KG-1 [4] was 1%. The inhibition of growth at 5 µM in the test on KG-1 [5] came out at 8%.
Consider `O=C(O)/C=C/c1cnc(-c2ccc(O)c(C34CC5CC(CC(C5)C3)C4)c2)c(Cl)c1`, for which the outcome in the test on HT-29 [10] was inactive. Further, the result with A549 [8] and in the test with PC-3 [9] was Active. Also, the Activity entry in the test with A549 [1] was “Dose-dependent effect”; in the test with PC-3 [2], “Dose-dependent effect”; in the test on HT-29 [3], “Dose-dependent effect”; in the test with KG-1 [6], 56%; with KG-1 [7], 65%. Also, in the test with KG-1 [4], the inhibition of growth at 1 µM turned out to be 41%. Besides, the inhibition of growth at 5 µM in the test with KG-1 [5] was determined as 47%.
In the case of `CCOC(=O)/C=C/c1ccc(-c2ccc(O)c(C34CC5CC(CC(C5)C3)C4)c2)nc1`, the outcome with A549 [8] and in the test on PC-3 [9] was Active. For the same compound, the Activity result in the test on A549 [1] was “Dose-dependent effect”; in the test on PC-3 [2], “Dose-dependent effect”; in the test with HT-29 [3] it was “Dose-dependent effect”; in the test on KG-1 [6] it was 0%; in the test with KG-1 [7], 0%. Besides, the inhibition of growth at 1 µM in the test on KG-1 [4] is 0%. In addition, the inhibition of growth at 5 µM in the test with KG-1 [5] was found to be 45%.
As to `O=C(O)CCc1ccc(-c2ccc(O)c(C34CC5CC(CC(C5)C3)C4)c2)c(Cl)c1`, the Activity result with A549 [1] is “Dose-dependent effect”; with PC-3 [2] it was “Dose-dependent effect”; in the test on HT-29 [3] it was “Dose-dependent effect”; in the test on KG-1 [6], 0%; in the test with KG-1 [7], 1%. The inhibition of growth at 1 µM in the test with KG-1 [4] was determined as 0%. In addition, the inhibition of growth at 5 µM in the test with KG-1 [5] was found to be 0%.
Consider `O=C(O)CC(=O)N1CCN(c2ccc(O)c(C34CC5CC(CC(C5)C3)C4)c2)C(=O)C1`, for which the Activity entry with A549 [1] is “Dose-dependent effect”; in the test on PC-3 [2] it was “Dose-dependent effect”; with HT-29 [3], “Dose-dependent effect”; in the test with KG-1 [6] it was 1%; with KG-1 [7] it was 2%. Further, the inhibition of growth at 1 µM in the test on KG-1 [4] is -2%. Also, the inhibition of growth at 5 µM in the test on KG-1 [5] was -5%.
Take `CC(=O)Oc1ccc(-c2ccc(/C=C/C(=O)O)cn2)cc1C12CC3CC(CC(C3)C1)C2`: the Activity result was “Dose-dependent effect” with A549 [1]; “Dose-dependent effect” in the test with PC-3 [2]; “Dose-dependent effect” in the test on HT-29 [3]; 52% in the test on KG-1 [6]; 67% in the test on KG-1 [7]. Also, the inhibition of growth at 1 µM in the test on KG-1 [4] is 46%. Further, in the test on KG-1 [5], the inhibition of growth at 5 µM amounted to 54%.
Take `O=C(O)CS(=O)(=O)c1ccc(-c2ccc(O)c(C34CC5CC(CC(C5)C3)C4)c2)c(Cl)c1`: the Activity result with A549 [1] is “Dose-dependent effect”; with PC-3 [2], “Dose-dependent effect”; in the test on HT-29 [3], “Dose-dependent effect”; in the test with KG-1 [6] it was 2%; in the test on KG-1 [7], 6%. Moreover, the inhibition of growth at 1 µM in the test with KG-1 [4] was determined as 7%. Further, in the test with KG-1 [5], the inhibition of growth at 5 µM stood at 13%.
Regarding `O=C(O)COc1ccc(-c2ccc(O)c(C34CC5CC(CC(C5)C3)C4)c2)c(Cl)c1`, the result with A549 [8] was inactive. Also, the Activity entry in the test with A549 [1] is “Dose-dependent effect”; with PC-3 [2] it was “Dose-dependent effect”; in the test with HT-29 [3], “Dose-dependent effect”; with KG-1 [6] it was 5%; in the test on KG-1 [7] it was 25%. For the same compound, the inhibition of growth at 1 µM in the test on KG-1 [4] is 34%. Also, the inhibition of growth at 5 µM with KG-1 [5] came to 75%.
As for `O=C(O)/C=C/c1ccc(-c2ccc(O)c(C34CC5CC(CC(C5)C3)C4)c2)cn1`, the outcome in the test with A549 [8] and with PC-3 [9] was Active. The Activity result in the test on A549 [1] was “Dose-dependent effect”; in the test with PC-3 [2] it was “Dose-dependent effect”; in the test on HT-29 [3] it was “Dose-dependent effect”; with A549 [11], 10%; in the test on PC-3 [12], more than 60%; with HT-29 [13], 10%. Also, the figures for the Activity in the test with KG-1 [6] and in the test on KG-1 [7] were 36% and 52%, respectively. Besides, the inhibition of growth at 1 µM in the test with KG-1 [4] was 48%. The inhibition of growth at 5 µM with KG-1 [5] worked out at 58%.
In the case of `O=C(O)/C=C/c1ccc(-c2ccc(O)c(C34CC5CC(CC(C5)C3)C4)c2)nn1`, in the test on A549 [8], the outcome was inactive. Moreover, the outcome in the test with PC-3 [9] was Active. In addition, the Activity entry was “Dose-dependent effect” with A549 [1]; “Dose-dependent effect” in the test on PC-3 [2]; “Dose-dependent effect” in the test with HT-29 [3]; “<=5%” with A549 [11]; more than 60% in the test on PC-3 [12]; “<=5%” in the test with HT-29 [13]. Moreover, the Activity with KG-1 [6] is 48%; with KG-1 [7], 59%. The inhibition of growth at 1 µM in the test on KG-1 [4] came out at 70%. Moreover, the inhibition of growth at 5 µM in the test with KG-1 [5] worked out at 80%.
As for `O=C(O)CNc1ccc(-c2ccc(O)c(C34CC5CC(CC(C5)C3)C4)c2)c(Cl)c1`, the Activity result is “>=40%” in the test on HT-29 [10]; “Dose-dependent effect” in the test on A549 [1]; “Dose-dependent effect” with PC-3 [2]; “Dose-dependent effect” with HT-29 [3]; 18% in the test with KG-1 [6]; 35% in the test with KG-1 [7]. In addition, the result in the test with A549 [8] was inactive. Also, in the test on KG-1 [4], the inhibition of growth at 1 µM is 30%. Moreover, the inhibition of growth at 5 µM in the test on KG-1 [5] was 45%.
